Results from patent US8030354B2, “Substituted biphenyl GPR40 modulators” (Amgen Inc., priority 2007, dated 2011).

How the values were obtained:
[1] = biological target: T1, GPR40 (Homo sapiens, UniProt O14842); experiment: Cell-based aequorin assay (CHO cells stably expressing GPR40 and aequorin); set-up: expressed in transfected cells; host or cells: CHO cells stably transfected with GPR40 and aequorin; conditions: activation of human GPR40, CHO cells, 0.01% HSA
In short: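 CHO cells stably co-expressing GPR40 and aequorin, loaded with coelenterazine (1 ug/mL, 2 h, room temperature) in H/HBSS with 20 mM Hepes and 0.01% fatty acid-free HSA. Serially diluted compounds added; luminescence recorded over 20 s. EC50 from dose-response of maximum relative light units.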

[2] = biological target: T1, GPR40; experiment: Inositol phosphate accumulation assay (A9_GPR40 cells); assay type: cell-based; set-up: expressed in transfected cells; host or cells: CHO cells stably transfected with GPR40 and aequorin; conditions: inositol phosphate assay, A9_GPR40 cells, 1 hour; read-out: IP3 EC50
In short: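 A9 cells stably expressing GPR40 were labelled 16 h with 1 μCi/mL ^3H-inositol in inositol-free DMEM with dialysed FBS. Compounds in HBSS/10 mM LiCl with HSA were applied for 1 h at 37° C, then quenched with 20 mM formic acid. Accumulated [^3H] inositol phosphates were counted by SPA.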

T1 sequence (O14842 whole entry): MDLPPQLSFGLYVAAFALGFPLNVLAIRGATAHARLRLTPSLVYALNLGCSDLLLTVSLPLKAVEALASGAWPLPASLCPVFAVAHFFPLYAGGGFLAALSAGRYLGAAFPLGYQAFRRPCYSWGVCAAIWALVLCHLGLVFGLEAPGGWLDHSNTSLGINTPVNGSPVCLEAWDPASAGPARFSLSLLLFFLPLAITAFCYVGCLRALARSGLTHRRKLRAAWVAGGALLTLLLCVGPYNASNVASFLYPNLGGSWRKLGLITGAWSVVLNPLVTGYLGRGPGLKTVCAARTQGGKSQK

CCC(CC(=O)O)c1cccc(OCc2ccc(-c3cc(OC)ccc3F)c(C(C)(C)C)c2)c1F (single isomer, unassigned) [Example 77.2, (3R)-3-(3-(((2-(1,1-Dimethylethyl)-2′-fluoro-5′-(methyloxy)-1,1′-biphenyl-4-yl)methyl)oxy)-2-fluorophenyl)pentanoic acid or (3S)-3-(3-(((2-(1,1-dimethylethyl)-2′-fluoro-5′-(methyloxy)-1,1′-biphenyl-4-yl)methyl)oxy)-2-fluorophenyl)pentanoic acid]
EC50 [1]: 0.1 to 1 µM | EC50 [2]: 0.1 to 1 µM

CCC(CC(=O)O)c1cccc(OCc2ccc(-c3cc(OC)ccc3F)c(C(OC)C(C)(C)C)c2)c1F (single isomer, unassigned) [Example 77.4]
EC50 [1]: 0.1 to 1 µM | EC50 [2]: < 0.01 µM

CCC(CC(=O)O)c1cccc(OCc2ccc(-c3cc(OC)ccc3F)c(C(C)C(C)(C)C)c2)c1F (single isomer, unassigned) [Example 77.5]
EC50 [1]: 0.1 to 1 µM | EC50 [2]: < 0.01 µM

CCC(CC(=O)O)c1cccc(OCc2cc(C3CCCC3(C)C)c(-c3cc(OC)ccc3F)cc2F)c1F (single isomer, unassigned) [Example 77.6]
EC50 [1]: 0.1 to 1 µM | EC50 [2]: < 0.01 µM

CC[C@H](CC(=O)O)c1cccc(OCc2ccc(-c3cc(C(F)F)ccc3F)c(C3=CCCC3(C)C)c2)c1F (single isomer, unassigned) [Example 77.7, (3R)-3-(3-(((5′-(Difluoromethyl)-2-(5,5-dimethyl-1-cyclopenten-1-yl)-2′-fluoro-1,1′-biphenyl-4-yl)methyl)oxy)-2-fluorophenyl)pentanoic acid or (3S)-3-(3-(((5′-(difluoromethyl)-2-(5,5-dimethyl-1-cyclopenten-1-yl)-2′-fluoro-1,1′-biphenyl-4-yl)methyl)oxy)-2-fluorophenyl)pentanoic acid]
EC50 [1]: 1 to 10 µM | EC50 [2]: 0.1 to 1 µM

CCC(CC(=O)O)c1cccc(OCc2ccc(-c3cc(OC)ccc3F)c(C3CCCCC3(C)C)c2)c1F (single isomer, unassigned) [Example 77.8]
EC50 [1]: 0.1 to 1 µM | EC50 [2]: < 0.01 µM

CCC(CC(=O)O)c1cccc(OCc2ccc(-c3cc(OC)ncc3F)c(C3CCCC3(C)C)c2)c1F (single isomer, unassigned) [Example 77.9]
EC50 [1]: 0.1 to 1 µM | EC50 [2]: < 0.01 µM

CCC(CC(=O)O)c1cccc(OCc2ccc(-c3cc(OC)ncc3F)c(C(OC)C(C)(C)C)c2)c1F (single isomer, unassigned) [Example 77.10]
EC50 [1]: 0.1 to 1 µM | EC50 [2]: < 0.01 µM

CCC(CC(=O)O)c1cccc(OCc2ccc(-c3cc(OC)ncc3F)c(C(O)(C(C)(C)C)C(C)(C)C)c2)c1F (single isomer, unassigned) [Example 77.11, (3R)-3-(3-(4-(5-Fluoro-2-methoxypyridin-4-yl)-3-(3-hydroxy-2,2,4,4-tetramethylpentan-3-yl)benzyloxy)-2-fluorophenyl)pentanoic acid or (3R)-3-(3-(4-(5-fluoro-2-methoxypyridin-4-yl)-3-(3-hydroxy-2,2,4,4-tetramethylpentan-3-yl)benzyloxy)-2-fluorophenyl)pentanoic acid]
EC50 [1]: 0.1 to 1 µM | EC50 [2]: < 0.01 µM

CC[C@H](CC(=O)O)c1cccc(OCc2ccc(-c3cc(OC)ccc3F)c([C@H]3CCCC3(C)C)c2)c1 (single isomer, unassigned) [Example 78.4]
EC50 [1]: 0.01 to 0.1 µM | EC50 [2]: < 0.01 µM

CCC(CC(=O)O)c1cccc(OCc2ccc(-c3cccc(OC)c3)c(C3CCCC3(C)C)c2)c1 (single isomer, unassigned) [Example 78.6]
EC50 [1]: 0.01 to 0.1 µM | EC50 [2]: < 0.01 µM

CC[C@H](CC(=O)O)c1cccc(OCc2ccc(-c3cc(OC)ccc3F)c(C3CCCCCC3)c2)c1 (single isomer, unassigned) [Example 78.7, (3R)-3-(3-(((2-Cycloheptyl-2′-fluoro-5′-(methyloxy)-1,1′-biphenyl-4-yl)methyl)oxy)phenyl)pentanoic acid or (3S)-3-(3-(((2-cycloheptyl-2′-fluoro-5′-(methyloxy)-1,1′-biphenyl-4-yl)methyl)oxy)phenyl)pentanoic acid]
EC50 [1]: 0.1 to 1 µM | EC50 [2]: 0.01 to 0.1 µM

CC[C@H](CC(=O)O)c1cccc(OCc2ccc(-c3cccc(OC)c3)c(C3CCCCCC3)c2)c1 (single isomer, unassigned) [Example 78.8, (3R)-3-(3-(((2-Cycloheptyl-3′-(methyloxy)-1,1′-biphenyl-4-yl)methyl)oxy)phenyl)pentanoic acid or (3S)-3-(3-(((2-cycloheptyl-3′-(methyloxy)-1,1′-biphenyl-4-yl)methyl)oxy)phenyl)pentanoic acid]
EC50 [1]: 0.1 to 1 µM | EC50 [2]: 0.01 to 0.1 µM

CC[C@H](CC(=O)O)c1cccc(OCc2ccc(-c3cc(Cl)ccc3F)c(C3=CCCC3(C)C)c2)c1 (single isomer, unassigned) [Example 78.9, (3R)-3-(3-(((5′-Chloro-2-(5,5-dimethyl-cyclopenten-1-yl)-2′-fluoro-1,1′-biphenyl-4-yl)methyl)oxy)phenyl)pentanoic acid or (3S)-3-(3-(((5′-chloro-2-(5,5-dimethyl-1-cyclopenten-1-yl)-2′-fluoro-1,1′-biphenyl-4-yl)methyl)oxy)phenyl)pentanoic acid]
EC50 [1]: 0.1 to 1 µM | EC50 [2]: 0.01 to 0.1 µM

CCC(CC(=O)O)c1cccc(OCc2cc(C3CCCC3(C)C)c(-c3cc(OC)ccc3F)cc2F)c1 (single isomer, unassigned) [Example 78.10]
EC50 [1]: 0.1 to 1 µM | EC50 [2]: < 0.01 µM

CCC(CC(=O)O)c1cccc(OCc2ccc(-c3cc(OC)ccc3F)c(C3CCCCC3(C)C)c2)c1 (single isomer, unassigned) [Example 78.11]
EC50 [1]: 0.01 to 0.1 µM | EC50 [2]: < 0.01 µM

CCC(CC(=O)O)c1cccc(OCc2ccc(-c3cc(OC)ccc3F)c(C(OC)C(C)(C)CC)c2)c1 (single isomer, unassigned) [Example 78.14]
EC50 [1]: 0.01 to 0.1 µM | EC50 [2]: < 0.01 µM

COc1ccc(F)c(-c2ccc(COc3cccc(C(CC(=O)O)C4CCC4)c3)cc2C2CCCC2(C)C)c1 (single isomer, unassigned) [Example 79.3]
EC50 [1]: 0.1 to 1 µM | EC50 [2]: 0.01 to 0.1 µM

COc1ccc(F)c(-c2ccc(COc3cccc([C@@H](CC(=O)O)C4CCC4)c3)cc2[C@@H]2CCCC2(C)C)c1 (single isomer, unassigned) [Example 79.4]
EC50 [1]: 0.01 to 0.1 µM | EC50 [2]: < 0.01 µM

COc1cccc(-c2ccc(COc3cccc(C(CC(=O)O)C4CCC4)c3)cc2C2CCCC2(C)C)c1 (single isomer, unassigned) [Example 79.6]
EC50 [1]: 0.1 to 1 µM | EC50 [2]: 0.01 to 0.1 µM

COc1ccc(F)c(-c2ccc(COc3cccc(C(CC(=O)O)C4CCC4)c3)cc2C2CCCCCC2)c1 (single isomer, unassigned) [Example 79.7, (3S)-3-(3-(((2-Cycloheptyl-2′-fluoro-5′-(methyloxy)-1,1′-biphenyl-4-yl)methyl)oxy)phenyl)-3-cyclobutylpropanoic acid or (3R)-3-(3-(((2-cycloheptyl-2′-fluoro-5′-(methyloxy)-1,1′-biphenyl-4-yl)methyl)oxy)phenyl)-3-cyclobutylpropanoic acid]
EC50 [1]: 0.1 to 1 µM | EC50 [2]: 0.01 to 0.1 µM

COc1cccc(-c2ccc(COc3cccc(C(CC(=O)O)C4CCC4)c3)cc2C2CCCCCC2)c1 (single isomer, unassigned) [Example 79.8, (3S)-3-(3-(((2-Cycloheptyl-3′-(methyloxy)-1,1′-biphenyl-4-yl)methyl)oxy)phenyl)-3-cyclobutylpropanoic acid or (3R)-3-(3-(((2-cycloheptyl-3′-(methyloxy)-1,1′-biphenyl-4-yl)methyl)oxy)phenyl)-3-cyclobutylpropanoic acid]
EC50 [1]: 0.1 to 1 µM | EC50 [2]: 0.01 to 0.1 µM

CCC[C@H](CC(=O)O)c1cccc(OCc2ccc(-c3cc(OC)ccc3F)c([C@H]3CCCC3(C)C)c2)c1 (single isomer, unassigned) [Example 80.4]
EC50 [1]: 0.1 to 1 µM | EC50 [2]: < 0.01 µM

CCCC(CC(=O)O)c1cccc(OCc2ccc(-c3cccc(OC)c3)c(C3CCCC3(C)C)c2)c1 (single isomer, unassigned) [Example 80.6]
EC50 [1]: 0.1 to 1 µM | EC50 [2]: < 0.01 µM

CCC(CC(=O)O)c1cccc(NCc2ccc(-c3cc(OC)ccc3F)c(C3=CCCC3(C)C)c2)c1 (single isomer, unassigned) [Example 81, (3R)-3-(3-(((2-(5,5-Dimethyl-1-cyclopenten-1-yl)-2′-fluoro-5′-(methyloxy)-1,1′-biphenyl-4-yl)methyl)amino)phenyl)pentanoic acid or (3S)-3-(3-(((2-(5,5-dimethyl-1-cyclopenten-1-yl)-2′-fluoro-5′-(methyloxy)-1,1′-biphenyl-4-yl)methyl)amino)phenyl)pentanoic acid]
EC50 [1]: 0.1 to 1 µM | EC50 [2]: > 10 µM

CC[C@H](CC(=O)O)c1cccc(SCc2ccc(-c3cc(OC)ccc3F)c([C@H]3CCCC3(C)C)c2)c1 (single isomer, unassigned) [Example 82]
EC50 [1]: 0.1 to 1 µM | EC50 [2]: 1 to 10 µM

COc1ccc(F)c(-c2cc(F)c(COc3cccc([C@@H](CC(=O)O)C4CC4)c3F)cc2[C@H]2CCCC2(C)C)c1 (single isomer, unassigned) [Example 83.2]
EC50 [1]: 0.01 to 0.1 µM | EC50 [2]: < 0.01 µM

CC1(C)CCC[C@@H]1c1cc(COc2cccc([C@@H](CC(=O)O)C3CC3)c2F)ccc1-c1cc(C(F)F)ccc1F (single isomer, unassigned) [Example 83.3]
EC50 [1]: 0.1 to 1 µM | EC50 [2]: 0.01 to 0.1 µM

COc1cc(-c2ccc(COc3cccc([C@@H](CC(=O)O)C4CC4)c3F)cc2[C@H]2CCCC2(C)C)c(F)cn1 (single isomer, unassigned) [Example 83.4]
EC50 [1]: 0.01 to 0.1 µM | EC50 [2]: < 0.01 µM
